# Laboratory results published in patent EP4361137A1, “PRUNE1 INHIBITORS AND THERAPEUTIC USE THEREOF” (CEINGE Biotecnologie Avanzate Franco Salvatore s.c. a r.l., priority 2022, dated 2024).
# What was measured:
# [1] = tested on: MATH1-Prune1/TP53-/- cells; experiment: Mouse cytokine antibody array on conditioned media; type: cell-based, murine; conditions: 10 µM, 24 hours; n.61 cytokines measured
# Method: The conditioned media collected from three different vehicle- or 10 µM LEO-AA7.5(S)T-treated MATH1-Prune1/TP53-/- cells after 24 hours were pooled. The relative levels of cytokines in the pooled conditioned media and murine sera were measured (RayBio C-Series Mouse Cytokine Antibody Array C3 [AAM-CYT-3-2]), according to the manufacturer protocol. Densitometric analysis was carried out using the Quantity One software (BioRad). Expression levels were normalized to the levels of the positive control spots (contained within the membrane). For each cytokine, the mean ±standard error was determined.
# [2] = molecular target: T1, c-Prune1 (354-453) (Homo sapiens, UniProt Q86TP1); experiment: NMR and microscale thermophoresis interaction study; type: binding; conditions: KD not given
# T1 construct: 20 µM of c-Prune1 (354-453) protein was labelled with 60 µM of NT-647-NHS reactive dye; made in house
# T1 sequence (Q86TP1 354-453): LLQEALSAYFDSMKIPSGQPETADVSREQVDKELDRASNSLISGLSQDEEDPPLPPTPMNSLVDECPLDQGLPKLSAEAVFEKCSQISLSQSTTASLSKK
# Method: For interaction studies, samples (total volume, 600 µL) were prepared in 5-mm NMR tubes, using 1mM of AA7.5 and 10µM of C-prune1 (AA7.5/C-prune1 molar ratio of 100:1) in H2O/^2H2O mixture at pH 6.8. STD spectra were acquired with 512 scans with onresonance irradiation at -0.5 ppm for selective saturation of protein resonances and off-resonance irradiation at 30 ppm for reference spectra. A train of 40 Gaussian-shaped pulses of 50 milliseconds with 1-millisecond delay between pulses were used, for a total saturation time of 2 seconds. […]
# 1H and STD spectra of AA7.5 alone were acquired as reference. […] Relative STD values were calculated by dividing STD signal intensities by the intensities of the corresponding signals in a 1D 1H NMR reference spectrum of the same sample recorded with 512 scans and similarly processed. […] To determine the per residue chemical shift perturbation upon binding and account for differences in spectral widths between ^15N and ^1H resonances, weighted average chemical shift differences, ΔδHN , were calculated for the amide ^15N and ^1H resonances, using equation: ΔδHN = ([((ΔHN))^2+((0.17×Δ^15N))^2])^((1)/(2)) [formula] where ΔH and ΔN are the differences between free and bound chemical shifts. […]
# [3] = tested on: Caspase 3; experiment: Caspase 3 activity assay; type: cell-based, murine; conditions: MATH1-Prune1/TP53-/- cells
# Method: MATH1-Prune1/TP53-/- cells (3×10^4) were plated in 96-well plate and treated with different doses of Vincristine (i.e., 0.3 nM or 0.03 nM) alone or combined to 10 µM LEO-AA7.5(S)T. Vehicle- (0.01% DMSO) treated cells were used as negative controls. Staurosporine-treated cells (1 µM) were used as positive controls of the assays. The assay was performed by using Caspase-3 Activity Assay Kit (#5723, Cell Signaling), by following the manufacture's instruction. Briefly, after 24 hours from the treatment started, cell medium was removed and 30 ul of cell lysis buffer (PI-7018, Cell Signaling) were added. The plate was then incubated for 5 minutes on ice. Later, 25 ul of cell lysate were mixed with 200 ul substrate solution B (#11734S, Cell Signaling) in a black 96 well plate. Fluorescence was detected by using a multimode plate reader (Enspire, 2300, PerkinElmer). The positive control AMC (25 µl, #11735S, Cell Signaling) mixed with 200 ul 1X assay buffer A (#11736S, Cell Signaling) was used as positive control of fluorescence.
compound,measurement,setting,value
"COc1ccc(CNc2ncnc(N3CCC[C@H](CO)C3)n2)cc1.Cl [LEO-AA7.5(S)T, (S)-(1-(4-((4-methoxybenzyl)amino)-1,3,5-triazin-2-yl)piperidin-3-yl)methanol HCl salt]",number of cytokines/ chemokines significantly downregulated in the conditioned media,[1],10
same,binding to Prune1 protein at its Carboxyl-terminus domain,[2],binds Prune1 protein
same,"Caspase 3 activation, combination with Vincristine",[3]; 10 µM plus 0.03 nM Vincristine,promotes Caspase 3 activation
same,"Caspase 3 activation, single agent","[3]; Vincristine 0.3 nM and 0.03 nM, LEO-AA7.5(S)T 10 µM, 24 hours",does not induce apoptotic action
